Data reported in patent publication US10328092B2, “Methods and compositions for treatment of drug addiction” (The Royal Institution for the Advancement of Learning / …, priority 2015, dated 2019).

Legend:
[1] = tested on: primary rat microglia cultures; assay: TNFα mRNA in primary rat microglia cultures; assay type: cell-based
Method: For tissue, total RNA from the ventral striatum was extracted and isolated by RNAqueous-4PCR total RNA isolation kit (Ambion, AM1914), according to manufacturer's instructions. For microglia and astrocyte cultures, total RNA was isolated by RNeasy kit (Qiagen, 74136). For all sample types, 0.5 μg of total RNA was used for cDNA synthesis with Quantitect Reverse Transcription Kit (Qiagen, 205313), and quantitative RT-PCR was performed with Fast SYBR-Green Master Mix (Applied Biosystems) detected by StepOne Plus RealTime PCR system (Applied Biosystems). The sequences of qPCR primers used for mRNA quantification in this study were obtained from Integrated DNA Technologies, and are as follows: mouse TNFα forward, […] (SEQ ID NO: 1) [200 nM]; mouse TNFα reverse, […] (SEQ ID NO: 2) [200 nM]; mouse GAPDH forward, […] (SEQ ID NO: 3) [300 nM]; mouse GAPDH reverse, […] (SEQ ID NO: 4) [300 nM]; rat TNFα forward, […] (SEQ ID NO: 1) [600 nM]; rat TNFα reverse, […] (SEQ ID NO: 5) [600 nM]; rat cyclophilin forward, […] (SEQ ID NO: 6) [500 nM]; rat cyclophilin reverse, […] (SEQ ID NO: 7) [500 nM]. After 40 cycles, the Ct values were determined. To normalize the samples, ΔCt between TNFα and GADPH or cyclophilin Ct values was calculated. The x-fold difference in expression between the different treatments was then determined by subtraction of the ΔCt values and termed ΔΔCt. Finally, the total change was calculated as 2-ΔΔct and the relative amount compared with control samples was deducted.
Mixed microglia-astrocyte primary cultures were prepared from the striatum of postnatal rats (day 0), essentially as described (Beattie et al., 2002). Briefly, tissue was dissociated by […], and cells were seeded in glia media (MEM containing 5% FBS, 1.5% high sucrose MEM and 0.1% glutamax) on culture flasks (Corning) coated with poly-D lysine (Sigma) and placed in a humidified incubator at 37 C with 5% CO2. Neurons were removed by mechanical disruption and the medium was changed at day 1, and every 5-7 days after. […]

[2] = tested on: primary rat astrocyte cultures; conditions: dopamine 0.1 μm with ascorbic acid, 3 hours
Method: For tissue, total RNA from the ventral striatum was extracted and isolated by RNAqueous-4PCR total RNA isolation kit (Ambion, AM1914), according to manufacturer's instructions. For microglia and astrocyte cultures, total RNA was isolated by RNeasy kit (Qiagen, 74136). For all sample types, 0.5 μg of total RNA was used for cDNA synthesis with Quantitect Reverse Transcription Kit (Qiagen, 205313), and quantitative RT-PCR was performed with Fast SYBR-Green Master Mix (Applied Biosystems) detected by StepOne Plus RealTime PCR system (Applied Biosystems). The sequences of qPCR primers used for mRNA quantification in this study were obtained from Integrated DNA Technologies, and are as follows: mouse TNFα forward, […] (SEQ ID NO: 1) [200 nM]; mouse TNFα reverse, […] (SEQ ID NO: 2) [200 nM]; mouse GAPDH forward, […] (SEQ ID NO: 3) [300 nM]; mouse GAPDH reverse, […] (SEQ ID NO: 4) [300 nM]; rat TNFα forward, […] (SEQ ID NO: 1) [600 nM]; rat TNFα reverse, […] […] After 40 cycles, the Ct values were determined. To normalize the samples, ΔCt between TNFα and GADPH or cyclophilin Ct values was calculated. The x-fold difference in expression between the different treatments was then determined by subtraction of the ΔCt values and termed ΔΔCt. Finally, the total change was calculated as 2-ΔΔct and the relative amount compared with control samples was deducted. […]

adult microglial cells = assay: TNFα mRNA in cultured adult mouse microglia; assay type: cell-based; conditions: dopamine 0.1 μm, 3 hours; not significant p=0.057
Method: (SEQ ID NO: 1) [200 nM]; mouse TNFα reverse, […] (SEQ ID NO: 2) [200 nM]; mouse GAPDH forward, […] (SEQ ID NO: 3) [300 nM]; mouse GAPDH reverse, […] (SEQ ID NO: 4) [300 nM]; rat TNFα forward, […] (SEQ ID NO: 1) [600 nM]; rat TNFα reverse, […] (SEQ ID NO: 5) [600 nM]; rat cyclophilin forward, […] (SEQ ID NO: 6) [500 nM]; rat cyclophilin reverse, […] (SEQ ID NO: 7) [500 nM]. After 40 cycles, the Ct values were determined.
Adult male C57BL/6 mice (8-12 weeks) underwent cardiac perfusion with Hank's Balanced Salt Solution (HBSS) and whole brains were removed. Cortices and striata were dissected, cut in to small pieces and subjected to enzymatic digestion with the Neural Tissue Dissociation Kit (P) (Miltenyi Biotech, US cat no. 130-092-628), as per manufactures instructions. Tissue was homogenised and resuspended in 35% isotonic Percoll, overlayed with HBSS and spun at 400 g for 45 mins for the removal of myelin. Pure populations of microglial cells were obtained through magnetic bead cell sorting using CD11b microbeads (Miltenyi, cat no. 130-093-634). Aliquots from positive and negative bead selected fractions were removed for cell staining to assess cell purity. […] Cells were acquired using a BD FACS Canto II and analyzed using BD FACSDiva software. […]

Cl.NCCc1ccc(O)c(O)c1 [dopamine, dopamine hydrochloride]
TNFα mRNA in microglia cultures [1]: significantly increased
TNFα production in astrocytes [2]: does not alter
TNFα mRNA, cultured adult microglia (adult microglial cells): 160 % of control
